According to patent US11802120B2, “Fused cyclic urea derivatives as CRHR2 antagonist” (RaQualia Pharma Inc., priority 2018, dated 2023):

molecular target: T1, human CRHR2-alpha (Homo sapiens, UniProt Q13324); assay: cAMP functional assay for human CRHR2 (LANCE Ultra cAMP, TR-FRET); type: cell-based; conditions: CHO-K1 cells expressing human CRHR2-alpha, agonist human urocortin2 at EC80, cAMP; read-out: IC50 against CRHR2
T1 sequence (Q13324 1-411): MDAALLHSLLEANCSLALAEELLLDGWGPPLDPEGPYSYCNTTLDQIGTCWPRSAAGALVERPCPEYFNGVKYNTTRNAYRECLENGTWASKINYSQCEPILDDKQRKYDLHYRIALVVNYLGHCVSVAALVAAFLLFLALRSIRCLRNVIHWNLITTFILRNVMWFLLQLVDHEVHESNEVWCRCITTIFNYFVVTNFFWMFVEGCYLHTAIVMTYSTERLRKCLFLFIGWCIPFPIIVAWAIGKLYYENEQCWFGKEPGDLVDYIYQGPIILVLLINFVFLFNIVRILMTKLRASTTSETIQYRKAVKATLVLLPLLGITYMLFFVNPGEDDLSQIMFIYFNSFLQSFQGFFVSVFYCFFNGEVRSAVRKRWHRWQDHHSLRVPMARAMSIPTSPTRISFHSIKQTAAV
Description: cAMP functional assay for human CRHR1 and CRHR2
The ability of the compounds of this invention to inhibit either CRHR2 or CRHR1 is assessed by 3′,5′-cyclic adenosine monophosphate (cAMP) production in cells using the LANCE Ultra cAMP assay kit (ParkinElmer), which are designed based on the homogeneous time-resolved fluorescence resonance energy transfer (TR-FRET) immunoassay.
CHO-K1 (Chinese hamster ovary) cells stably expressing either human CRHR2-alpha (DiscoveRX, Cat. 95-0048C2) or human CRHR1-beta (DiscoveRX, Cat. 95-0047C2) are grown in HAM's F12 media supplemented with 10% fetal bovine serum (FBS), 100 units/mL penicillin, 100 microg/mL hygromycin and 0.5 microg/mL geneticin at 37° C. in 5% CO2 humidified incubator to 80% confluence. After 7 hours starvation treatment in culture media containing 0.1% FBS, the cells are washed with Hanks balanced salt solution (HBSS) and cryopreserved.
For cAMP assay, frozen cells are thawed and washed with HBSS, followed by resuspended in assay buffer (HBSS containing 0.1% bovine serum albumin, 0.5 mM isobutylmethylxanthine and 5 mM Hepes, pH 7.4) at the appropriate concentration for the assay. The cell suspensions are plated on 384-well microplates (Greiner Bio-One) at a density of 4,000 cells per well. After preincubating the cells with various concentrations of the compounds for 30 min at 25° C., an assay buffer containing EC80 concentration of each agonist is added and the cells are incubated for 30 min at 25° C. Human urocortin2 (Peptide Institute) and CRF (Peptide Institute) are used as agonists for CRHR2 and CRHR1, respectively. For the termination of assay, europium-labeled cAMP tracer and ULight (registered trademark) dye labeled cAMP antibodies, both prepared with Lance-Ultra cAMP detection reagent (Perkin Elmer) are added in the plate and incubate for 60 min at 25° C. After incubation, TR-FRET signal is detected by EnVision plate reader (PerkinElmer). The IC50 values for compounds are calculated from dose-response curves by fitting the percent inhibition using XLfit (ID Business Solutions).

Q: With Cc1ncc(Cl)cc1C(=O)N[C@H]1CC[C@H](Cn2c(=O)n(-c3cccc4ncccc34)c3ccccc32)CC1 [Example 345, 5-chloro-2-methyl-N-((1r,4r)-4-((2-oxo-3-(quinolin-5-yl)-2,3-dihydro-1H-benzo[d]imidazol-1-yl)methyl)cyclo-hexyl)nicotinamide] as the compound, how does the IC50 read?
A: < 300 nM

Q: CNc1ncc(-n2c(=O)n(C[C@H]3CC[C@H](NC(=O)c4cc(Cl)cnc4C(F)F)CC3)c3ccccc32)cc1F [Example 639, 5-chloro-2-(difluoromethyl)-N-((1r,4r)-4-((3-(5-fluoro-6-(methylamino)pyridin-3-yl)-2-oxo-2,3-dihydro-1H-benzo[d]imidazol-1-yl)methyl)cyclohexyl)nicotinamide] was tested. Which IC50 did it give?
A: < 300 nM

Q: For O=C(N[C@H]1CC[C@H](Cn2c(=O)n(-c3cncc(-c4ncco4)c3)c3ccccc32)CC1)c1cc(Cl)cnc1C(F)F [Example 688, 5-chloro-2-(difluoromethyl)-N-((1r,4r)-4-((3-(5-(oxazol-2-yl)pyridin-3-yl)-2-oxo-2,3-dihydro-1H-benzo[d]imidazol-1-yl)methyl)cyclohexyl) nicotinamide], which IC50 is on record?
A: < 300 nM

Q: How did the IC50 turn out when O=C(N[C@H]1CC[C@H](Cn2c(=O)n(-c3ccnc(N4CCOCC4)c3)c3ccccc32)CC1)c1cc(Cl)cnc1C(F)F [Example 686, 5-chloro-2-(difluoromethyl)-N-((1r,4r)-4-((3-(2-morpho-linopyridin-4-yl)-2-oxo-2,3-dihydro-1H-benzo[d]imidazol-1-yl)methyl)cyclohexyl) nicotinamide] was run?
A: < 300 nM

Q: With CNc1ncc(-n2c(=O)n(C[C@H]3CC[C@H](NC(=O)c4cc(Cl)cnc4C)CC3)c3ccccc32)cc1C [Example 133, 5-chloro-2-methyl-N-((1r,4r)-4-((3-(5-methyl-6-(methyl-amino)pyridin-3-yl)-2-oxo-2,3-dihydro-1H-benzo[d]imidazol-1-yl)methyl)cyclohexyl) nicotinamide] as the compound, how does the IC50 read?
A: < 300 nM

Q: For Cc1ncc(Cl)cc1C(=O)N[C@H]1CC[C@H](Cn2c(=O)n(-c3ccc(C(=O)NC4COC4)cc3)c3ccccc32)CC1 [Example 130, 5-chloro-2-methyl-N-((1r,4r)-4-((3-(4-(oxetan-3-ylcarbamoyl)phenyl)-2-oxo-2,3-dihydro-1H-benzo[d]imidazol-1-yl)methyl)cyclohexyl)nicotinamide], which IC50 is on record?
A: < 300 nM

Q: How did the IC50 turn out when Cc1ncc(Cl)cc1C(=O)N[C@H]1CC[C@H](Cn2c(=O)n(-c3ccc(-c4c[nH]cn4)cc3)c3ccccc32)CC1 [Example 667, N-((1r,4r)-4-((3-(4-(1H-imidazol-4-yl)phenyl)-2-oxo-2,3-dihydro-1H-benzo[d]imidazol-1-yl)methyl)cyclohexyl)-5-chloro-2-methylnicotinamide] was run?
A: < 300 nM

Q: COc1ccc(C#N)c(-n2c(=O)n(C[C@H]3CC[C@H](NC(=O)c4cc(Cl)cnc4C)CC3)c3ccccc32)c1 [Example 259, 5-chloro-N-((1r,4r)-4-((3-(2-cyano-5-methoxyphenyl)-2-oxo-2,3-dihydro-1H-benzo [d]imidazol-1-yl)methyl)cyclo-hexyl)-2-methylnicotinamide] was tested. Which IC50 did it give?
A: < 300 nM

Q: With CNc1ccc(-n2c(=O)n(C[C@H]3CC[C@H](NC(=O)c4cc(Cl)cnc4C(F)(F)F)CC3)c3ccccc32)cn1 [Example 332, 5-chloro-N-((1r,4r)-4-((3-(6-(methylamino)pyridin-3-yl)-2-oxo-2,3-dihydro-1H-benzo[d]imidazol-1-yl)methyl)cyclohexyl)-2-(trifluoromethyl) nicotinamide] as the compound, how does the IC50 read?
A: < 300 nM

Q: For Cc1ccc(-n2c(=O)n(C[C@H]3CC[C@H](NC(=O)c4cc(Cl)cnc4C)CC3)c3cc(F)ccc32)cn1 [Example 123, 5-chloro-N-((1r,4r)-4-((6-fluoro-3-(6-methylpyridin-3-yl)-2-oxo-2,3-dihydro-1H-benzo[d]imidazol-1-yl)methyl)cyclo-hexyl)-2-methylnicotinamide], which IC50 is on record?
A: < 300 nM

Q: With O=C(N[C@H]1CC[C@H](Cn2c(=O)n(-c3ccc(N4CCOCC4=O)nc3)c3ccccc32)CC1)c1cc(Cl)cnc1C(F)F [Example 505, 5-chloro-2-(difluoromethyl)-N-((1r,4r)-4-((2-oxo-3-(6-(3-oxomorpholino)pyridin-3-yl)-2,3-dihydro-1H-benzo[d]imidazol-1-yl)methyl)cyclo-hexyl)nicotinamide] as the compound, how does the IC50 read?
A: < 300 nM

Q: CCn1cc2cc(-n3c(=O)n(C[C@H]4CC[C@H](NC(=O)c5cc(Cl)cnc5C)CC4)c4ccccc43)cnc2n1 [Example 254, 5-chloro-N-((1r,4r)-4-((3-(2-ethyl-2H-pyrazolo[3,4-b]pyridin-5-yl)-2-oxo-2,3-dihydro-1H-benzo[d]imidazol-1-yl)methyl)cyclohexyl)-2-methylnicotinamide] was tested. Which IC50 did it give?
A: < 300 nM

Q: How did the IC50 turn out when Cc1ncc(Cl)cc1C(=O)N[C@H]1CC[C@H](Cn2c(=O)n(-c3cccc(N4CCNC4=O)n3)c3ccccc32)CC1 [Example 772, 5-chloro-2-methyl-N-((1r,4r)-4-((2-oxo-3-(6-(2-oxo-imidazolidin-1-yl)pyridin-2-yl)-2,3-dihydro-1H-benzo [d]imidazol-1-yl)methyl)cyclohexyl)nicotinamide] was run?
A: < 300 nM

Q: How did the IC50 turn out when CN1CCN(c2ccc(-n3c(=O)n(C[C@H]4CC[C@H](NC(=O)c5cc(Cl)cnc5C(F)F)CC4)c4ccccc43)nc2)C1=O [Example 735, 5-chloro-2-(difluoromethyl)-N-((1r,4r)-4-((3-(5-(3-methyl-2-oxoimidazolidin-1-yl)pyridin-2-yl)-2-oxo-2,3-dihydro-1H-benzo[d]imidazol-1-yl)methyl)cyclohexyl) nicotinamide] was run?
A: < 300 nM

Q: Which IC50 does the source give for O=C(N[C@H]1CC[C@H](Cn2c(=O)n(-c3ccc(-n4nccn4)cc3)c3ccccc32)CC1)c1cc(Cl)cnc1C(F)F [Example 684, N-((1r,4r)-4-((3-(4-(2H-1,2,3-triazol-2-yl)phenyl)-2-oxo-2,3-dihydro-1H-benzo[d]imidazol-1-yl)methyl)cyclo-hexyl)-5-chloro-2-(difluoro-methyl)nicotinamide] here?
A: < 300 nM

Q: Cc1ncc(Cl)cc1C(=O)N[C@H]1CC[C@H](Cn2c(=O)n(-c3cnc4c(c3)oc(=O)n4C)c3ccccc32)CC1 [Example 215, 5-chloro-2-methyl-N-((1r,4r)-4-((3-(3-methyl-2-oxo-2,3-dihydrooxazolo[4,5-b]pyridin-6-yl)-2-oxo-2,3-dihydro-1H-benzo[d]imidazol-1-yl)methyl)cyclohexyl)nicotinamide] was tested. Which IC50 did it give?
A: < 300 nM

Q: How did the IC50 turn out when O=C(N[C@H]1CC[C@H](Cn2c(=O)n(-c3ccc(N4CCNC4=O)cn3)c3ccccc32)CC1)c1cc(Cl)cnc1C(F)F [Example 717, 5-chloro-2-(difluoromethyl)-N-((1r,4r)-4-((2-oxo-3-(5-(2-oxoimidazolidin-1-yl)pyridin-2-yl)-2,3-dihydro-1H-benzo [d]imidazol-1-yl)methyl)cyclo-hexyl)nicotinamide] was run?
A: < 300 nM

Q: With CN(C)c1cccc(-n2c(=O)n(C[C@H]3CC[C@H](NC(=O)c4cc(Cl)cnc4C(F)F)CC3)c3ccccc32)n1 [Example 659, 5-chloro-2-(difluoromethyl)-N-((1r,4r)-4-((3-(6-(dimethyl-amino)pyridin-2-yl)-2-oxo-2,3-dihydro-1H-benzo[d]imidazol-1-yl)methyl)cyclo-hexyl)nicotinamide] as the compound, how does the IC50 read?
A: < 300 nM

Q: O=C(N[C@H]1CC[C@H](Cn2c(=O)n(-c3cccc4nccn34)c3ccccc32)CC1)c1cc(Cl)cnc1C(F)F [Example 420, 5-chloro-2-(difluoromethyl)-N-((1r,4r)-4-((3-(imidazo[1,2-a]pyridin-5-yl)-2-oxo-2,3-dihydro-1H-benzo[d]imidazol-1-yl)methyl)cyclohexyl)nicotinamide] was tested. Which IC50 did it give?
A: < 300 nM
